Measurements from publication PMC10762035, “Molecular basis of human trace amine-associated receptor 1 activation” (Nature Communications, 2024).
Values joined by “and” are separate entries in the source; they are usually repeats but may differ in a detail not shown here. Identical values can stand only once. Counter-ions that a name gives are not always drawn.

Columns and labels:
hTA1 [1] = target: T1, hTA1 (Homo sapiens, UniProt Q96RJ0); test: Screen of 89 aminergic compounds at 10 µM, cAMP accumulation in HEK293T cells; format: cell-based; details: quadruplicate values; screen at 10 µM;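 further: HEK293T cells co-transfected with hTA1 and GloSensor cAMP reporter, cAMP accumulation detected by luminescence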
T1 construct: expressed in transfected cells; host or cells: HEK293T
T1 sequence (Q96RJ0 1-339): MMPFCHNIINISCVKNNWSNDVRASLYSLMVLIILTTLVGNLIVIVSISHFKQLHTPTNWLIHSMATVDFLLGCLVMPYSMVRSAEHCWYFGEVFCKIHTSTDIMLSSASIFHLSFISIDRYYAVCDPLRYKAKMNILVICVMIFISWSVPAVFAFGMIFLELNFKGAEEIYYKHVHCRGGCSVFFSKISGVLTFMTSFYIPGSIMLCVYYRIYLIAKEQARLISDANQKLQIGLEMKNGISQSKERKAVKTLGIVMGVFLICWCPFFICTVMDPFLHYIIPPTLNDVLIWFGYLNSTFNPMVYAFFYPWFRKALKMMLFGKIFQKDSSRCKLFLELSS

hTA1 [2] = target: T1, hTA1; test: GloSensor cAMP accumulation assay, concentration response, wild-type hTA1 in transfected HEK293T cells; format: cell-based; details: log[Compound], replicate wells;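 further: luminescence read after 30 min compound exposure at room temperature in cells preloaded with D-Luciferin, reflecting Gs-driven cAMP rise, efficacy scaled to the maximal β-PEA response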

CS(=O)(=O)Nc1ccc(Cc2noc(-c3ccc4[nH]cc(CCN)c4c3)n2)cc1 [L694 247]
Luminescence for Screening Data (hTA1 [1]): 6.5 and 8.1 and 7.2

CC(C)c1cc(-c2ccc(F)c3ccccc23)nc(N)n1 [RS 127445]
Luminescence for Screening Data (hTA1 [1]): 10.7 and 5.8 and 6.4 and 7

CN(C)CCOC1=Cc2ccccc2Sc2ccc(Cl)cc21 [zotepine]
Luminescence for Screening Data (hTA1 [1]): 5.4 and 6.9 and 6.1 and 5.8

CCN(CC)C(=O)[C@@H]1C=C2c3cccc4[nH]c(Br)c(c34)C[C@H]2N(C)C1 [2-Br LSD]
Luminescence for Screening Data (hTA1 [1]): 10.4 and 10.1 and 9.5 and 7.6

C#CCN(C)Cc1ccccc1 [Pargyline hydrochloride]
Luminescence for Screening Data (hTA1 [1]): 8.3 and 10.1 and 8.8 and 8.5

O=S1(=O)c2cccc3cccc(c23)N1CCCN1CCN(c2ccc(F)cc2)CC1 [Fananserin]
Luminescence for Screening Data (hTA1 [1]): 4.9 and 5 and 4.3 and 5.2

CN1C[C@H](C(=O)N[C@]2(C)O[C@@]3(O)[C@@H]4CCCN4C(=O)[C@H](Cc4ccccc4)N3C2=O)C[C@@H]2c3cccc4[nH]cc(c34)C[C@H]21 [Dihydroergotamine mesylate]
Luminescence for Screening Data (hTA1 [1]): 25.4 and 24.7 and 32.7 and 26.9

NC(=O)C[S+]([O-])C(c1ccccc1)c1ccccc1 (stereo not shown) [Modafanil]
Luminescence for Screening Data (hTA1 [1]): 6.8 and 5.8 and 5.7 and 8.1

NCCc1c[nH]c2ccc(O)cc12 [Serotonin Hydrochloride]
Luminescence for Screening Data (hTA1 [1]): 29.3

CCCCCCCCCOc1ccc2[nH]cc(CCN)c2c1 [5-nonyloxytryptamine]
Luminescence for Screening Data (hTA1 [1]): 10.6 and 10.3 and 13.3 and 10.2

CCN(CC)C(=O)/C(C#N)=C/c1cc(O)c(O)c([N+](=O)[O-])c1 [Entacapone]
Luminescence for Screening Data (hTA1 [1]): 5.5 and 5.2 and 6.2 and 5.6

CN1CCC(=C2c3ccccc3Sc3ccccc32)CC1 [Pimethixine]
Luminescence for Screening Data (hTA1 [1]): 3.8 and 3.7

NCCc1ccccc1 [bPEA]
Normalized Luminescence Counts for WT hTA1 (hTA1 [2]; M = -5): 114.55 and 104.58 and 118.623 and 102.53 and 95.7683 and 107.085
Normalized Luminescence Counts for WT hTA1 (hTA1 [2]; M = -5.522): 96.3904 and 87.8446 and 97.5922 and 98.0692 and 90.9789 and 92.0588
Normalized Luminescence Counts for WT hTA1 (hTA1 [2]; M = -6): 88.2006 and 75.1148 and 94.0536 and 103.14 and 88.8658 and 89.805
Normalized Luminescence Counts for WT hTA1 (hTA1 [2]; M = -6.522): 73.7573 and 64.299 and 91.1383 and 74.7791 and 68.7219 and 73.7461
Normalized Luminescence Counts for WT hTA1 (hTA1 [2]; M = -7): 70.4636 and 45.5827 and 61.4726 and 66.5619 and 44.258 and 53.6961
Normalized Luminescence Counts for WT hTA1 (hTA1 [2]; M = -7.522): 36.1467 and 21.3027 and 35.9464 and 26.7905 and 17.9158 and 22.3766
Normalized Luminescence Counts for WT hTA1 (hTA1 [2]; M = -8): 22.727 and 16.7405 and 21.3472 and 13.3611 and 11.9525 and 11.6238
Normalized Luminescence Counts for WT hTA1 (hTA1 [2]; M = -8.522): 4.5 and 4.523 and 5.969 and 4.393 and 2.514 and 2.6083
Normalized Luminescence Counts for WT hTA1 (hTA1 [2]; M = -9): 1.986 and 1.318 and 1.8743 and 1.716 and 1.012 and 1.106
Normalized Luminescence Counts for WT hTA1 (hTA1 [2]; M = -9.522): -1.063 and -1.33 and -0.4402 and -0.06817 and 0.1666 and -0.4908
Normalized Luminescence Counts for WT hTA1 (hTA1 [2]; M = -10): -0.596 and -1.264 and -0.5515 and -0.4438 and -0.7725 and -0.6786
Normalized Luminescence Counts for WT hTA1 (hTA1 [2]; M = -10.522): -1.3749 and -1.931 and -0.6405 and 0.0727 and -0.5847 and -1.101
Normalized Luminescence Counts for WT hTA1 (hTA1 [2]; M = -11): -0.1286 and -1.241 and 0.2497 and 0.6362 and -0.3499 and -0.7725
Normalized Luminescence Counts for WT hTA1 (hTA1 [2]; M = -11.522): -0.01735 and -1.575 and -0.7963 and 0.5892 and -0.3969 and -0.256
Normalized Luminescence Counts for WT hTA1 (hTA1 [2]; M = -12): -1.353 and -1.3749 and -1.286 and 0.02574 and -0.4908 and -0.3029
Normalized Luminescence Counts for WT hTA1 (hTA1 [2]; M = -12.522): -1.152 and -1.664 and -0.9075 and 0.5892 (2×) and 0.4483

O=C1CC[C@@]2(O)[C@H]3Cc4ccc(O)c5c4[C@@]2(CCN3CC2CC2)[C@H]1O5 [Naltrexone hydrochloride]
Luminescence for Screening Data (hTA1 [1]): 7.8 and 5.6 and 5.9 and 6.7

CCCCN1CCC(COC(=O)c2cc(Cl)c(N)c3c2OCCO3)CC1 [SB204070]
Luminescence for Screening Data (hTA1 [1]): 5.4 and 6 and 6.4

O=[N+]([O-])c1ccc(CSc2ncnc3c2ncn3[C@@H]2O[C@H](CO)[C@@H](O)[C@H]2O)cc1 [NBMPR]
Luminescence for Screening Data (hTA1 [1]): 6.9 and 7.3 and 6.6
